Key:
Test in all cases: SelectScreen ZLYTE
Assay type in all cases: biochemical
Details in all cases: INX-0315 at 100nM
ABL1 F317I = target: T1, ABL1 F317I (Homo sapiens, UniProt P00519, F317I)
T1 construct: purchased Thermo Fisher Scientific SelectScreen (plus Nanosyn / Reaction Biology for CDK/cyclin lines)
Excerpt: (§1) INX-315 was first evaluated in the SelectScreen Biochemical Kinase Profiling at Thermo Fisher Scientific (Madison, WI). The primary screen consisted of INX-315 dosed at a single concentration of 100 nmol/L in 1% DMSO across each platform within the SelectScreen array of assays, LanthaScreen Eu Kinase Binding Assay; AdaptaScreen; and Z'LyteScreen using preestablished conditions at Thermo Fisher Scientific as shown in Supplementary Table S2. […] The follow-up screen consisted of 10-point dose–response curves for INX-315 from 1 µmol/L to 0.0495 nmol/L.

AKT1 (PKB alpha) = target: T2, AKT1 (PKB alpha) (Homo sapiens, UniProt P31749)
T2 construct: purchased Thermo Fisher Scientific SelectScreen (plus Nanosyn / Reaction Biology for CDK/cyclin lines)
T2 sequence (P31749 whole entry): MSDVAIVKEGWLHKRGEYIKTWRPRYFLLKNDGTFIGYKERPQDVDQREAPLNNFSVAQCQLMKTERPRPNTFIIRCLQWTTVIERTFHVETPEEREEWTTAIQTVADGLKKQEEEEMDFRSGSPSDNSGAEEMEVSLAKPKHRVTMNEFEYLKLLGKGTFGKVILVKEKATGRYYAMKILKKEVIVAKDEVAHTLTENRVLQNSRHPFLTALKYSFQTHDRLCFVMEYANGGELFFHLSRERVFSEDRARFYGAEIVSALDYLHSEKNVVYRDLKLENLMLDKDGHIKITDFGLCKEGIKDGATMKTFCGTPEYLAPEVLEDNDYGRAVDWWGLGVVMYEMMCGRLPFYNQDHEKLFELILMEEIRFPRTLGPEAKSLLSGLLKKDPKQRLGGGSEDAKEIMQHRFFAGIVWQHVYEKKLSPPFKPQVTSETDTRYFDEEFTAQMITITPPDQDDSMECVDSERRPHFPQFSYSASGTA
Excerpt: as §1

AMPK A1/B1/G1 = target: T3, AMPK A1/B1/G1 (Homo sapiens, UniProt Q13131)
T3 construct: purchased Thermo Fisher Scientific SelectScreen (plus Nanosyn / Reaction Biology for CDK/cyclin lines)
Excerpt: as §1

AURKA (Aurora A) = target: T4, AURKA (Aurora A) (Homo sapiens, UniProt O14965)
T4 construct: purchased Thermo Fisher Scientific SelectScreen (plus Nanosyn / Reaction Biology for CDK/cyclin lines)
Excerpt: as §1

AURKB (Aurora B) = target: T5, AURKB (Aurora B) (Homo sapiens, UniProt Q96GD4)
T5 construct: purchased Thermo Fisher Scientific SelectScreen (plus Nanosyn / Reaction Biology for CDK/cyclin lines)
Excerpt: as §1

CAMK1G (CAMKI gamma) = target: T6, CAMK1G (CAMKI gamma) (Homo sapiens, UniProt Q96NX5)
T6 construct: purchased Thermo Fisher Scientific SelectScreen (plus Nanosyn / Reaction Biology for CDK/cyclin lines)
Excerpt: as §1

CAMK2A (CaMKII alpha) = target: T7, CAMK2A (CaMKII alpha) (Homo sapiens, UniProt Q9UQM7)
T7 construct: purchased Thermo Fisher Scientific SelectScreen (plus Nanosyn / Reaction Biology for CDK/cyclin lines)
Excerpt: as §1

CAMK2D (CaMKII delta) = target: T8, CAMK2D (CaMKII delta) (Homo sapiens, UniProt Q13557)
T8 construct: purchased Thermo Fisher Scientific SelectScreen (plus Nanosyn / Reaction Biology for CDK/cyclin lines)
Excerpt: as §1

CDC42 BPA (MRCKA) = target: T9, CDC42 BPA (MRCKA) (Homo sapiens, UniProt Q5VT25)
T9 construct: purchased Thermo Fisher Scientific SelectScreen (plus Nanosyn / Reaction Biology for CDK/cyclin lines)
Excerpt: as §1

CHEK1 (CHK1) = target: T10, CHEK1 (CHK1) (Homo sapiens, UniProt O14757)
T10 construct: purchased Thermo Fisher Scientific SelectScreen (plus Nanosyn / Reaction Biology for CDK/cyclin lines)
Excerpt: as §1

DYRK3 = target: T11, DYRK3 (Homo sapiens, UniProt O43781)
T11 construct: purchased Thermo Fisher Scientific SelectScreen (plus Nanosyn / Reaction Biology for CDK/cyclin lines)
Excerpt: as §1

DYRK4 = target: T12, DYRK4 (Homo sapiens, UniProt Q9NR20)
T12 construct: purchased Thermo Fisher Scientific SelectScreen (plus Nanosyn / Reaction Biology for CDK/cyclin lines)
Excerpt: as §1

EGFR (ErbB1) L858R = target: T13, EGFR (ErbB1) L858R (Homo sapiens, UniProt P00533, L858R)
T13 construct: purchased Thermo Fisher Scientific SelectScreen (plus Nanosyn / Reaction Biology for CDK/cyclin lines)
T13 sequence (P00533 25-1210 L858R): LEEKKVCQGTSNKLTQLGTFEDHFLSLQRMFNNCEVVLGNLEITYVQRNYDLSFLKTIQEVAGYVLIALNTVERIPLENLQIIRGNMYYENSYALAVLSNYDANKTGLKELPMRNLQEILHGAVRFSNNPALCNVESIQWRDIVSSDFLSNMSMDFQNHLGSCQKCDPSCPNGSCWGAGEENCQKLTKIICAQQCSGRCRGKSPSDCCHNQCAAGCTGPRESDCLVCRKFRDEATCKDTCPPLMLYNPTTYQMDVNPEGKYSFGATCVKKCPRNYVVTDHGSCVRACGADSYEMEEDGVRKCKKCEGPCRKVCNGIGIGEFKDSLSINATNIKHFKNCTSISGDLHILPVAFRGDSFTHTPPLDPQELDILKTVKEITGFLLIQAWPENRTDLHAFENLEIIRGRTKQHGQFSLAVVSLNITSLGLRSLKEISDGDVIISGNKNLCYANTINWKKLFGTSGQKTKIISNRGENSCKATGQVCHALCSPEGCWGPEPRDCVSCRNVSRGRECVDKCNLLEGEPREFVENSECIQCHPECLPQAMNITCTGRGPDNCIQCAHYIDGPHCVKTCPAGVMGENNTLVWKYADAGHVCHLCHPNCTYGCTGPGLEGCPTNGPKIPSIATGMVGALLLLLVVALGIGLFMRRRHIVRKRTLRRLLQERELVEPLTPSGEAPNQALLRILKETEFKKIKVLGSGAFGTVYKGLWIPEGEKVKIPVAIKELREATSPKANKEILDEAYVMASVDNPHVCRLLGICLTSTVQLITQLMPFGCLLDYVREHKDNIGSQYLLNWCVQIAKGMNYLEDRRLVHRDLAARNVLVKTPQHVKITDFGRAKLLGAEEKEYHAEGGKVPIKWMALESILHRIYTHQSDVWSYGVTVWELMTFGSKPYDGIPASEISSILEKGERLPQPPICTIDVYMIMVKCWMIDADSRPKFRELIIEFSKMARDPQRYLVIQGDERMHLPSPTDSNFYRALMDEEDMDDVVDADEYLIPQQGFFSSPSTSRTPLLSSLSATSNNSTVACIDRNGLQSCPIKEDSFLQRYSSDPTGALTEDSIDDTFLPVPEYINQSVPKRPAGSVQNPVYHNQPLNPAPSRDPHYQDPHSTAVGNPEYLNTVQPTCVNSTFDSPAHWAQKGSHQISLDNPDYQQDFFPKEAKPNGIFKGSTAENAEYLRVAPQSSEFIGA
Excerpt: as §1

EPHA1 = target: T14, EPHA1 (Homo sapiens, UniProt P21709)
T14 construct: purchased Thermo Fisher Scientific SelectScreen (plus Nanosyn / Reaction Biology for CDK/cyclin lines)
Excerpt: as §1

EPHB1 = target: T15, EPHB1 (Homo sapiens, UniProt P54762)
T15 construct: purchased Thermo Fisher Scientific SelectScreen (plus Nanosyn / Reaction Biology for CDK/cyclin lines)
Excerpt: as §1

FGFR3 = target: T16, FGFR3 (Homo sapiens, UniProt P22607)
T16 construct: purchased Thermo Fisher Scientific SelectScreen (plus Nanosyn / Reaction Biology for CDK/cyclin lines)
Excerpt: as §1

FRAP1 (mTOR) = target: T17, FRAP1 (mTOR) (Homo sapiens, UniProt P42345)
T17 construct: purchased Thermo Fisher Scientific SelectScreen (plus Nanosyn / Reaction Biology for CDK/cyclin lines)
Excerpt: as §1

IRAK4 = target: T18, IRAK4 (Homo sapiens, UniProt Q9NWZ3)
T18 construct: purchased Thermo Fisher Scientific SelectScreen (plus Nanosyn / Reaction Biology for CDK/cyclin lines)
Excerpt: as §1

JAK2 JH1 JH2 = target: T19, JAK2 JH1 JH2 (Homo sapiens, UniProt O60674)
T19 construct: JAK2 JH1 JH2; purchased Thermo Fisher Scientific SelectScreen (plus Nanosyn / Reaction Biology for CDK/cyclin lines)
T19 sequence (O60674 532-1132 limits assumed): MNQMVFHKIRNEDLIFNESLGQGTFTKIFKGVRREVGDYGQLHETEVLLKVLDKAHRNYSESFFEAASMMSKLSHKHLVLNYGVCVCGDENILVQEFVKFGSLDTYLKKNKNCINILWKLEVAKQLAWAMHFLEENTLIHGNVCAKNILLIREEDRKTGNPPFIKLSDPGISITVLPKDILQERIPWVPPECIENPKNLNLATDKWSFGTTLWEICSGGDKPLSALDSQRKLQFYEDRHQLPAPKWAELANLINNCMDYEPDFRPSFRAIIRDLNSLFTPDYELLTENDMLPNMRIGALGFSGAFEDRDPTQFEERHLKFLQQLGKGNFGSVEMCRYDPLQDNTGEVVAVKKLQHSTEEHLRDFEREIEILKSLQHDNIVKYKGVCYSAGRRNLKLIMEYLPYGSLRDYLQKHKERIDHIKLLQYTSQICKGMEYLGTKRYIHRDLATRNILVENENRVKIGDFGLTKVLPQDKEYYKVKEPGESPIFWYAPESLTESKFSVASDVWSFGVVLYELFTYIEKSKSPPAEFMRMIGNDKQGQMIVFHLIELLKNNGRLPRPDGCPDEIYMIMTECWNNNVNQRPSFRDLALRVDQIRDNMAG
Excerpt: as §1

KIT V560G = target: T20, KIT V560G (Homo sapiens, UniProt P10721, V560G)
T20 construct: purchased Thermo Fisher Scientific SelectScreen (plus Nanosyn / Reaction Biology for CDK/cyclin lines)
Excerpt: as §1

LYN A = target: T21, LYN A (Homo sapiens, UniProt P07948)
T21 construct: purchased Thermo Fisher Scientific SelectScreen (plus Nanosyn / Reaction Biology for CDK/cyclin lines)
Excerpt: as §1

MAPK10 (JNK3) = target: T22, MAPK10 (JNK3) (Homo sapiens, UniProt P53779)
T22 construct: purchased Thermo Fisher Scientific SelectScreen (plus Nanosyn / Reaction Biology for CDK/cyclin lines)
Excerpt: as §1

MAPK7 (ERK5) = target: T23, MAPK7 (ERK5) (Homo sapiens, UniProt Q13164)
T23 construct: purchased Thermo Fisher Scientific SelectScreen (plus Nanosyn / Reaction Biology for CDK/cyclin lines)
Excerpt: as §1

MAPKAPK3 = target: T24, MAPKAPK3 (Homo sapiens, UniProt Q16644)
T24 construct: purchased Thermo Fisher Scientific SelectScreen (plus Nanosyn / Reaction Biology for CDK/cyclin lines)
Excerpt: as §1

MARK1 (MARK) = target: T25, MARK1 (MARK) (Homo sapiens, UniProt Q9P0L2)
T25 construct: purchased Thermo Fisher Scientific SelectScreen (plus Nanosyn / Reaction Biology for CDK/cyclin lines)
Excerpt: as §1

MET (cMet) Y1235D = target: T26, MET (cMet) Y1235D (Homo sapiens, UniProt P08581, Y1235D)
T26 construct: purchased Thermo Fisher Scientific SelectScreen (plus Nanosyn / Reaction Biology for CDK/cyclin lines)
Excerpt: as §1

MET M1250T = target: T27, MET M1250T (Homo sapiens, UniProt P08581, M1250T)
T27 construct: purchased Thermo Fisher Scientific SelectScreen (plus Nanosyn / Reaction Biology for CDK/cyclin lines)
Excerpt: as §1

NTRK2 (TRKB) = target: T28, NTRK2 (TRKB) (Homo sapiens, UniProt Q16620)
T28 construct: purchased Thermo Fisher Scientific SelectScreen (plus Nanosyn / Reaction Biology for CDK/cyclin lines)
T28 sequence (Q16620 32-822): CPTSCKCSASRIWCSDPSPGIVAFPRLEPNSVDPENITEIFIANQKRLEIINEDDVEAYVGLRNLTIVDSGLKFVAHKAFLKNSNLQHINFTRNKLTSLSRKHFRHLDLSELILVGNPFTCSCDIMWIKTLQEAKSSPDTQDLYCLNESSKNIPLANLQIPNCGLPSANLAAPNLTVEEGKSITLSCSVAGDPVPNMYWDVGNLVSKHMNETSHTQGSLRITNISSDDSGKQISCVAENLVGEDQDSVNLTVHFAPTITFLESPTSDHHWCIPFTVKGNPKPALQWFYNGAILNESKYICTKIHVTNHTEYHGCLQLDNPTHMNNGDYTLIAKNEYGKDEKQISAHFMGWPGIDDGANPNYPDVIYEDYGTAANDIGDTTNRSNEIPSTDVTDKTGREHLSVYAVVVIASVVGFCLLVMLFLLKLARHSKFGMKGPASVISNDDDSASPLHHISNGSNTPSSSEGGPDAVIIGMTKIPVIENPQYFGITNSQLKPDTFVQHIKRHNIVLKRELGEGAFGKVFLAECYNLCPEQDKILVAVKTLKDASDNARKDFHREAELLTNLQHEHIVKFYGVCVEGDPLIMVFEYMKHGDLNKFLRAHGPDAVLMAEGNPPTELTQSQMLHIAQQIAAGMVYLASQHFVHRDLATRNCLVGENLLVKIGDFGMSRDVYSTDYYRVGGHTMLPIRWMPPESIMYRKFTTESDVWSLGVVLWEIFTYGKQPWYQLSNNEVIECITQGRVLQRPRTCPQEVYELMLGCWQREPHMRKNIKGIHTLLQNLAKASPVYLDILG
Excerpt: as §1

PAK6 = target: T29, PAK6 (Homo sapiens, UniProt Q9NQU5)
T29 construct: purchased Thermo Fisher Scientific SelectScreen (plus Nanosyn / Reaction Biology for CDK/cyclin lines)
Excerpt: as §1

PAK7 (KIAA1264) = target: T30, PAK7 (KIAA1264) (Homo sapiens, UniProt Q9P286)
T30 construct: purchased Thermo Fisher Scientific SelectScreen (plus Nanosyn / Reaction Biology for CDK/cyclin lines)
T30 sequence (Q9P286 whole entry): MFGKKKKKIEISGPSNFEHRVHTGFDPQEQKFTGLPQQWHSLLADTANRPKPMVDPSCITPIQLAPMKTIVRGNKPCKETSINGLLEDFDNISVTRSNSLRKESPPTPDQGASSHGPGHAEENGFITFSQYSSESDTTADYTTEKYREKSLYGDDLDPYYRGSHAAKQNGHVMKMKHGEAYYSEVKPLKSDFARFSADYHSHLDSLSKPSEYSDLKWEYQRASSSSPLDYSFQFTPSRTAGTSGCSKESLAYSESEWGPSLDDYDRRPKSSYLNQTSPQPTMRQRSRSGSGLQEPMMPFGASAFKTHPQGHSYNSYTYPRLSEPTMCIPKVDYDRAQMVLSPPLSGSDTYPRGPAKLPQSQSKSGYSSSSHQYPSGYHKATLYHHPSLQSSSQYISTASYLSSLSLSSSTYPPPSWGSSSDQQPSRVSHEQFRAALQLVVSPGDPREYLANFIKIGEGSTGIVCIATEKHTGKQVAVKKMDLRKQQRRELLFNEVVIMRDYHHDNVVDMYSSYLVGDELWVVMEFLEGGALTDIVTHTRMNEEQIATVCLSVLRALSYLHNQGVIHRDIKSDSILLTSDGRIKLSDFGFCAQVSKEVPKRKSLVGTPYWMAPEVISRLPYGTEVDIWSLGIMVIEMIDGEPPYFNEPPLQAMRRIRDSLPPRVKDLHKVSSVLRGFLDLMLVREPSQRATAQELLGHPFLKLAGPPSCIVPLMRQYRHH
Excerpt: as §1

PKN1 (PRK1) = target: T31, PKN1 (PRK1) (Homo sapiens, UniProt Q16512)
T31 construct: purchased Thermo Fisher Scientific SelectScreen (plus Nanosyn / Reaction Biology for CDK/cyclin lines)
Excerpt: as §1

PTK2 (FAK) = target: T32, PTK2 (FAK) (Homo sapiens, UniProt Q05397)
T32 construct: purchased Thermo Fisher Scientific SelectScreen (plus Nanosyn / Reaction Biology for CDK/cyclin lines)
Excerpt: as §1

ROCK2 = target: T33, ROCK2 (Homo sapiens, UniProt O75116)
T33 construct: purchased Thermo Fisher Scientific SelectScreen (plus Nanosyn / Reaction Biology for CDK/cyclin lines)
Excerpt: as §1

STK3 (MST2) = target: T34, STK3 (MST2) (Homo sapiens, UniProt Q13188)
T34 construct: purchased Thermo Fisher Scientific SelectScreen (plus Nanosyn / Reaction Biology for CDK/cyclin lines)
T34 sequence (Q13188 whole entry): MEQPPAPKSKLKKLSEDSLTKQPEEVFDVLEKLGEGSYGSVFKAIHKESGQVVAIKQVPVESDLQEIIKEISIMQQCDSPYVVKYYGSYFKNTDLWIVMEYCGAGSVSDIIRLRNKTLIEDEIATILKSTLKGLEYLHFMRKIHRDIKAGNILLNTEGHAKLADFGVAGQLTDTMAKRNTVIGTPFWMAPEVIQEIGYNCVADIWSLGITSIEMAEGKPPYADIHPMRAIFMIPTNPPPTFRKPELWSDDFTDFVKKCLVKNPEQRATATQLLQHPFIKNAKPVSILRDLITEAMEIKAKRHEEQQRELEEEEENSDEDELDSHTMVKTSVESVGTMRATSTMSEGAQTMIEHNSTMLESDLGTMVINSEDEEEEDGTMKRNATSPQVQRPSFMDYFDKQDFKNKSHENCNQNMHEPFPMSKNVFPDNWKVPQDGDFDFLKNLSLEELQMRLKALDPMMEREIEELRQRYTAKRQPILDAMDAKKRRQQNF
Excerpt: as §1

TYRO3 (RSE) = target: T35, TYRO3 (RSE) (Homo sapiens, UniProt Q06418)
T35 construct: purchased Thermo Fisher Scientific SelectScreen (plus Nanosyn / Reaction Biology for CDK/cyclin lines)
Excerpt: as §1

YES1 = target: T36, YES1 (Homo sapiens, UniProt P07947)
T36 construct: purchased Thermo Fisher Scientific SelectScreen (plus Nanosyn / Reaction Biology for CDK/cyclin lines)
T36 sequence (P07947 whole entry): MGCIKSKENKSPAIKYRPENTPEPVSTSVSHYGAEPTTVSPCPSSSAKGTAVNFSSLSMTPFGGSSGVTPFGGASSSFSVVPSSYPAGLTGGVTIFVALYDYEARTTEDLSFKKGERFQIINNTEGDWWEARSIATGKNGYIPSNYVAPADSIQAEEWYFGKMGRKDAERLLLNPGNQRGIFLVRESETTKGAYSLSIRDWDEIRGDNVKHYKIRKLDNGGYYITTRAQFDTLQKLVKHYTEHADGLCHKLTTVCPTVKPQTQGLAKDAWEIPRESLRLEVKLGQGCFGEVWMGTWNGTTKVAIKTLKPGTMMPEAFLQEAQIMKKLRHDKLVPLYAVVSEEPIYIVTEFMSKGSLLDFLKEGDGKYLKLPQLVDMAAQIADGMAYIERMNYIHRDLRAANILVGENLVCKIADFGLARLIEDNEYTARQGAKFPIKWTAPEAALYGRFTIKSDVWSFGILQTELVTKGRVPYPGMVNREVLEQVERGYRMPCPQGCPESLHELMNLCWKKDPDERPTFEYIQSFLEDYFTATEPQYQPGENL
Excerpt: as §1

Structure (SMILES): NS(=O)(=O)c1ccc(Nc2ncc3cc4n(c3n2)C2(CCCCC2)C(=O)NN4)cc1 [INX-315]
- inhibition at 0.1 µM (ABL1 F317I): 8%
- inhibition at 0.1 µM (AKT1 (PKB alpha)): 6%
- inhibition at 0.1 µM (AMPK A1/B1/G1): 32%
- inhibition at 0.1 µM (AURKA (Aurora A)): 38%
- inhibition at 0.1 µM (AURKB (Aurora B)): 53%
- inhibition at 0.1 µM (CAMK1G (CAMKI gamma)): 0%
- inhibition at 0.1 µM (CAMK2A (CaMKII alpha)): -4%
- inhibition at 0.1 µM (CAMK2D (CaMKII delta)): 1%
- inhibition at 0.1 µM (CDC42 BPA (MRCKA)): -3%
- inhibition at 0.1 µM (CHEK1 (CHK1)): 2%
- inhibition at 0.1 µM (DYRK3): 8%
- inhibition at 0.1 µM (DYRK4): 3%
- inhibition at 0.1 µM (EGFR (ErbB1) L858R): 1%
- inhibition at 0.1 µM (EPHA1): 22%
- inhibition at 0.1 µM (EPHB1): 19%
- inhibition at 0.1 µM (FGFR3): -3%
- inhibition at 0.1 µM (FRAP1 (mTOR)): 0%
- inhibition at 0.1 µM (IRAK4): 10%
- inhibition at 0.1 µM (JAK2 JH1 JH2): 44%
- inhibition at 0.1 µM (KIT V560G): 27%
- inhibition at 0.1 µM (LYN A): 6%
- inhibition at 0.1 µM (MAPK10 (JNK3)): 11%
- inhibition at 0.1 µM (MAPK7 (ERK5)): 5%
- inhibition at 0.1 µM (MAPKAPK3): 8%
- inhibition at 0.1 µM (MARK1 (MARK)): 9%
- inhibition at 0.1 µM (MET (cMet) Y1235D): -2%
- inhibition at 0.1 µM (MET M1250T): 3%
- inhibition at 0.1 µM (NTRK2 (TRKB)): 52%
- inhibition at 0.1 µM (PAK6): 19%
- inhibition at 0.1 µM (PAK7 (KIAA1264)): 1%
- inhibition at 0.1 µM (PKN1 (PRK1)): 7%
- inhibition at 0.1 µM (PTK2 (FAK)): 8%
- inhibition at 0.1 µM (ROCK2): 6%
- inhibition at 0.1 µM (STK3 (MST2)): 19%
- inhibition at 0.1 µM (TYRO3 (RSE)): 14%
- inhibition at 0.1 µM (YES1): 16%

From PMC10905675, “INX-315, a Selective CDK2 Inhibitor, Induces Cell Cycle Arrest and Senescence in Solid Tumors” (Cancer Discovery, 2023)
